Assay results from publication PMC5688144, “Assay interference and off-target liabilities of reported histone acetyltransferase inhibitors” (Nature Communications, 2017).

Key:
[1] = biological target: T1, AmpC β-lactamase (Escherichia coli, UniProt P00811); test: biochemical; parameters: species or system E. coli; conditions: 10 μM compound; ± 0.01% Triton X-100
T1 construct: Recombinant E. coli AmpC (amino acids 20–377); purchased MyBioSource.com
Outline: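 Compounds at 10 μM (2% DMSO, triplicate) were preincubated 5 min at RT with ~5 nM E. coli AmpC (residues 20–377) in 25 mM sodium phosphate pH 7.0, with or without 0.01% Triton X-100, then given 100 μM nitrocefin. Activity was normalized to DMSO; aggregation was called on a detergent-dependent change >30% (adjusted P <0.05).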

[2] = Absorbance spectra; type: physicochemical; conditions: for Absorption max (nm) / Absorbance counter-screen: 25 mM sodium phosphate, pH 7.0; for Absorbance counter-screen: 300-750 nm; for Molar absorptivity: at absorption max
Outline: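 Spectra from 300 to 750 nm were recorded at 100, 50 and 10 μM final compound in 25 mM sodium phosphate pH 7.0 with 2.0% DMSO, after 10 min at RT, read at 25 °C. Significant absorbance meant molar absorptivity above 2000 M^−1 cm^−1 at wavelengths above 300 nm.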

[3] = Fluorescence quenching counter-screen; type: physicochemical; conditions: 10 μM fluorophore; 32 nM-100 μM compound
Outline: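 Test compounds incubated with individual fluorophore standards in 25 mM sodium phosphate, pH 7.0, 2.0% (v/v) DMSO, 10 min at RT after shaking and centrifugation. Fluorescence intensity compared with fluorophore alone (DMSO controls), with instrument settings per fluorophore as in the autofluorescence studies.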

[4] = Autofluorescence counter-screen; type: physicochemical; conditions: autofluorescence at eight fluorophore settings; 32 nM-100 μM compound
Outline: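 Compounds in 25 mM sodium phosphate buffer, pH 7.0, 1.0% DMSO, were incubated 10 min at RT and 25 °C before fluorescence intensity was read at eight fluorophore standard settings. Intensities were converted to fluorophore-equivalent concentrations (FEC) using on-plate fluorophore dose-responses.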

[5] = UPLC-MS gross compound stability in assay buffer; conditions: 25 mM sodium phosphate, pH 7.0, 30 °C, no GSH or CoA
Method: Select compounds were incubated up to 24 h for additional stability analyses. Chromatograms and mass spectra were qualitatively analyzed for the formation of new peaks and/or loss of parent peaks.

T1 sequence (P00811 20-377): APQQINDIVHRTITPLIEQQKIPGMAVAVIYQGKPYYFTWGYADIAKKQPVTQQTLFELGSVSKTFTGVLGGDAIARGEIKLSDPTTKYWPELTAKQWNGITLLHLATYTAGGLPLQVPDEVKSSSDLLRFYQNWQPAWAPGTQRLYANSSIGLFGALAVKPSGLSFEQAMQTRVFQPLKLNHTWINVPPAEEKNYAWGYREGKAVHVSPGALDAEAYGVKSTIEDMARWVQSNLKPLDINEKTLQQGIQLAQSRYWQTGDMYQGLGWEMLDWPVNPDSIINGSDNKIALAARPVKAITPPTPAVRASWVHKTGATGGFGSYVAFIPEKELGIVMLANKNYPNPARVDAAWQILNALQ

COc1cc(/C=C/C(=O)CC(=O)/C=C/c2ccc(O)c(OC)c2)ccc1O [Compound 11, Curcumin]
AmpC aggregation counter-screen [1]: Detergent-sensitive (Aggregators were defined as compounds with significant detergent-dependent changes in AmpC activity (t-test, adjusted P-value <0.05; mean differences greater than 30%))
Absorption max (nm) [2]: 425 nm
Absorbance counter-screen [2]: Flagged (Significant absorbance was defined as molar absorptivity constants greater than 2000 M^−1 cm^−1 at wavelengths greater than 300 nm)
Molar absorptivity [2]: 20000 M⁻¹ cm⁻¹
Quenching counter-screen [3]: Flagged (Significant fluorescence quenching was defined as signal reduction greater than 25% of the corresponding fluorophore signal at any test compound concentration)
Fluorescence counter-screen [4]: Negative
UPLC-MS buffer stability counter-screen [5]: Gross degradation observed; loss of parent peak, appearance of new peaks

CCCCCCCCCCCC1=C(O)C(=O)C=C(O)C1=O [Compound 9, Embelin]
AmpC aggregation counter-screen [1]: Detergent-sensitive (Aggregators were defined as compounds with significant detergent-dependent changes in AmpC activity (t-test, adjusted P-value <0.05; mean differences greater than 30%))
Absorption max (nm) [2]: 315 nm
Absorbance counter-screen [2]: Flagged (Significant absorbance was defined as molar absorptivity constants greater than 2000 M^−1 cm^−1 at wavelengths greater than 300 nm)
Molar absorptivity [2]: 21000 M⁻¹ cm⁻¹
Quenching counter-screen [3]: Flagged (Significant fluorescence quenching was defined as signal reduction greater than 25% of the corresponding fluorophore signal at any test compound concentration)
Fluorescence counter-screen [4]: Negative
UPLC-MS buffer stability counter-screen [5]: Grossly stable
